Laboratory results: US20250314668A1, “DNAZYMES FOR SENSING AND IMAGING TARGET MOLECULES” (BOARD OF REGENTS, THE UNIVERSITY OF TEXAS SYSTEM, priority 2024, published 2025)
Like-named read-outs stand apart in the source and are kept apart here. In the oligonucleotide strings, read from the 5' end, every base follows the letter of its sugar. An asterisk marks phosphorothioate; unmarked linkages are phosphodiester. Other units and linkages are bracketed, terminal groups are in braces. A string of capitals states the bases alone. {3IABkFQ} = Iowa Black FQ quencher; d = 2'-deoxy (DNA); m = 2'-O-methyl

Legend:
[1] = tested on: SH-SY5Y cells; experiment: Fluorescence imaging of Cu^+ and Cu^2+ in live SH-SY5Y cells (PDTC, BCS, Aβ40); assay type: cell-based, human
[2] = tested on: cultured cell lines; experiment: Iron redox changes in cultured cell lines with ferroptosis inducers and NCOA4 regulators; assay type: cell-based
[3] = tested on: HepG2 or Hela cells; experiment: Simultaneous imaging of labile Fe^2+ and Fe^3+ in living cells treated with Tf or DFO; assay type: cell-based; conditions: treated cells
Protocol: For delivery of DNAzyme sensors using PEI (66, 67), the corresponding Fe(II)-H5-ErS, Fe(II)-H5-iErS, Fe(III)-B12-ErS, and Fe(III)-B12-iErS (final concentration of 10 μM) were mixed in the Fe^2+ buffer and Fe^3+ buffer separately. The mixtures were annealed at 95° C. for 5 min and stored at room temperature to allow full hybridization. PEI (25 kDa) was dissolved in water at 1 mg/ml. […] The normal cell medium was replaced with iron-deficient medium before the PEI-ErS or PEI-iErS was added to the cells grown in the plates.
After incubating HepG2 cells with PEI-ErS or PEI-iErS complex for 4 hours, cells were washed with phosphate-buffered saline (PBS) twice to remove excess amounts of complexes in medium. Then, the cells were stained by Hoechst 33258 for 15 min. Images were obtained using a Zeiss LSM 880 confocal microscope at 63× oil objective lens with numerical aperture 1.40 and immersion medium Immersol 518 F (Zeiss) at the UIUC IGB Core Facilities. Florescence emission of Hoechst 33258 was measured over 450 to 500 nm with excitation at 401 nm. Fe(II)-H5 was excited by 488 nm and measured over 500 to 550 nm, and Fe(III)-B12 was excited at 633 nm and measured over 640 to 700 nm. A laser power of 67% and pinhole size of 1 […] (AU) were used for the cellular images. Acquired images were analyzed by ImageJ using JACoP (88, 89). No background subtraction, Z-stacks, Gaussian blur filter, or change thresholds were performed for visualizing the figures. For cell fluorescence quantification, the study quantified the average fluorescence signals intensity in five cells (for TurboFect transfected cells) or five LysoTracker-labeled regions in different cells (for PEI transfected cells), per picture and three pictures per group with Image J (88), for the statistical comparison between groups.
Simultaneous imaging of labile Fe^2+ and Fe^3+ in living cells: HepG2 or Hela cells were cultured in glass-bottom dishes until about 70% confluence. The cells were pretreated with iron-deficient MEM containing either 100 μM DFO, 100 μM ferric ammonium citrate, […] holo-Tf, or 50 μM Tf for 4 hours, and then, the medium was replaced with an iron-deficient MEM containing PEI-ErS or PEI-iErS complexes or Opti-MEM containing 1 μl of TurboFect transfection reagent as described above for 4 hours. Before imaging, the cells were stained by LysoTracker Red and Hoechst 33258 for 15 min. After washing with PBS, the cells were incubated in iron-deficient MEM or regular DMEM, respectively, during the imaging.
Data processing and statistical analysis: To have a direct comparison of the iron amount between groups, the background signals were normalized by subtracting the fluorescence signals in iErS groups from the ErS groups (F-F0). No Z-stacks or change thresholds were used for statistical analysis. Graphs were plotted with GraphPad (GraphPad Software Inc.) or Origin (OriginLabs Corporation) and correspond to a single experiment. Bars represent means±SEM. Two-tailed distribution and two-sample equal variance t test were used for analyzing significance. Dixon's Q tests were performed to identify and exclude outliners. *P<0.05, **P<0.01, and ***P <0.001. […] The presented data described the quantification from single representative replicates from those biological replicates.

[4] = Copper sensor signal turn-on and background in solution (inactive controls, upgraded version); assay type: biochemical; conditions: for activity of inactive sequences to fluorophore labeled substrates: screening of Cu^2+ DNAzyme inactive sequences
Protocol: FIGS. 14A-14B depict fluorescence resulting of upgraded Cu DNAzyme. The concentration of Cu^2+ is 8 μM, the concentration of ascorbate is 50 μM.
Since the DNAzyme sensors are exposed to various nucleic acid enzymes in biological samples during imaging, it is common to have some extent of sensor degradation and dehybridization, which can increase the background signal. Although the study applied modifications to the end of DNA strands to minimize the exonuclease activities, the background could not be fully removed. Thus, it is critical to estimate the background signal levels for accurate background subtraction and more precise signal quantification.
In this iE design, the catalytic core sequence are converted into complement sequence of the original active sequences.

[5] = Point mutation gel cleavage assay of Fe^3+ B12 DNAzyme and substrate (heat map); assay type: biochemical; conditions: 100 μM FeCl3, pH 5.5, overnight; for activity of mutated substrate strand normalized to original Fe^3+ B12 Substrate: original DNAzyme strand
Protocol: (§1) FIG. 5 depicts a heat map illustrating the impact of point mutations within the catalytic core of the Fe^3+ B12 DNAzyme, against the unaltered Fe^3+ B12 substrate strand for comparative analysis with 5 mM Bis Tris, 40 mM Sodium Acetate, 200 mM NaCl at pH 5.5 with 100 μM FeCl3. The reaction occurred overnight at room temperature and analyzed by polyacrylamide gel electrophoresis.
as §1, with “FIG. 6” for “FIG. 5”, “B12 Substrate strand,” for “B12 DNAzyme,”, “B12 DNAzyme” for “B12 substrate”
(§2) Point mutations were intentionally introduced into the Fe^3+ B12 DNAzyme catalytic core, and subsequently assessed in comparison to the unaltered Fe^3+ B12 substrate strand under controlled reaction conditions. These conditions included a solution comprising 5 mM Bis Tris, 40 mM Sodium Acetate, 200 mM NaCl at pH 5.5, with concentrations of 250 nM for both the mutated B12 DNAzyme Strand and the FAM-labeled Original B12 Substrate Strand, along with 100 μM FeCl3. The reaction proceeded overnight at ambient temperature, followed by analysis via electrophoresis on a 15% denaturing gel.
as §2, with “Fe^3+ B12 Substrate Strand's catalytic core,” for “Fe^3+ B12 DNAzyme catalytic core,”, “Fe^3+ B12 DNAzyme strand under” for “Fe^3+ B12 substrate strand under”, “both the Original B12 DNAzyme” for “both the mutated B12 DNAzyme”, “the FAM-labeled mutated B12 Substrate” for “the FAM-labeled Original B12 Substrate”

[6] = PAGE gel activity assays of Fe^3+ B12 DNAzyme (cleavage site, truncation, pH, buffer, mutation combinations, selectivity); assay type: biochemical; conditions: presence of Fe^3+
Excerpt: RNA Cleavage Dependence of Fe^2+ H5 and Fe^3+ B12 DNAzymes: To investigate the Fe^2+ H5 and Fe^3+ B12 DNAzymes, various cleavage site modifications were incorporated into the substrate strands. The original Fe^2+ H5 DNAzyme was combined with Fe^2+ H5 substrate strands containing either a 2′-hydroxyl (2′OH), 2′-hydrogen (2′H), or 2′O-methyl (2′OMe) at the cleavage site. The original Fe^2+ H5 DNAzyme cleaves the Fe^2+ H5 substrate strand containing 2′OH at the cleavage site in the presence of Fe^2+ under anaerobic conditions. […] Similarly, the original Fe^3+ B12 DNAzyme was combined with Fe^3+ B12 substrate strands containing either 2′OH, 2′H, or 2′OMe at the cleavage site. The original Fe^3+ B12 DNAzyme cleaves the Fe^3+ B12 substrate strand containing 2′OH at the cleavage site in the presence of Fe^3+. […]
Truncations of Fe^2+ H5 and Fe^3+ B12 DNAzymes' Binding Arms: To further investigate the Fe^2+ H5 and Fe^3+ B12 DNAzymes, the DNAzymes were truncated at the 5′ and 3′ ends and tested using the FAM-labeled original substrate strand through activity assays assessed by PAGE gel. […]
Similarly, the pH dependency of Fe^3+ B12 was tested across a range of pH 4.0 to 6.0 with 100 μM FeCl3. […] Fluorescence intensity was monitored over time using a 5′ Alexa Fluor™ 647-labeled substrate and a 3′ Iowa Black™ RQ quencher-labeled DNAzyme at an enzyme-to-substrate ratio of 1:1. […]

Cc1cc(-c2ccc(S(=O)(=O)O)cc2)c2ccc3c(-c4ccc(S(=O)(=O)O)cc4)cc(C)nc3c2n1 [BCS, bathocuproine disulphonate]
fluorescence intensity of copper DNAzyme ([1]; 150 μM or 200 μM BCS overnight): significant decrease

[Cl-].[Cl-].[Co+2] [CoCl2]
Fe^3+/Fe^2+ ratio (Fe redox) with elevation of NCOA4 [2]: increase

CC(=O)N(O)CCCCCNC(=O)CCC(=O)N(O)CCCCCNC(=O)CCC(=O)N(O)CCCCCN [DFO, deferoxamine, reference compound]
decrease of the Fe^3+/Fe^2+ ratio [3]: 2.4 fold

COC(=O)CNC(=O)C(=O)OC [DMOG]
Fe^3+/Fe^2+ ratio (Fe redox) with elevation of NCOA4 ([2]; cells incubated with NCOA4 stimulator): increase

S=C(S)N1CCCC1 [PDTC, pyrrolidine dithiocarba-mate]
fluorescence signal of both Cu^+ and Cu^2+ sensor ([1]; 50 PM PDTC): significant increase | fluorescence signal of both Cu^+ and Cu^2+ sensor ([1]; addition of PDTC with Cu^2+, dose-dependent manner): increased

Amyloid-β (1-40) peptide [Aβ40]
fluorescence signals of intracellular Cu^+ and Cu^2+ DNAzyme ([1]; pretreated 24 h with monomers, oligomers and fibrils): enhanced

Aβ40 oligomers: oligomeric aggregation state of Aβ40
fluorescence intensity of Cu^+ and Cu^2+ DNAzyme ([1]; 10 μM, 24 h): significantly increased

Cu2 iE complement: inactive enzyme strand (TTTCGCCATCTTCTGGTCCTTATAGTGACT; DNA, backbone not given here; further chemistry not fully specified)
activity of inactive sequences to fluorophore labeled substrates [4]: minimum activity

Cu2 iE polyT 3IBFQ: inactive enzyme strand (TTTCGCCATCTTCTTTTTTTTATAGTGACT; DNA, 3' {3IABkFQ}, backbone not given here)
background signal of inactive sequence ([4]; both fluorophore and quencher labels): minimum background signal

Cu2 iE polyT: inactive enzyme strand (TTTCGCCATCTTCTTTTTTTTATAGTGACT; DNA, backbone not given here; further chemistry not fully specified)
activity of inactive sequences to fluorophore labeled substrates [4]: minimum activity

Fe^3+ B12 DNAzyme C20T (GCGGCATGCGCGTTTGCGGTACCTAAACGCTCCTAATAGAG; DNA, backbone not given here)
activity of mutated DNAzyme strand normalized to original Fe^3+ B12 DNAzyme ([5]; FAM-labeled original substrate): heightened activity

Fe^3+ B12 Original Substrate (2′H) (CTCTATTAGGGAGACTCGCATGCCGC; DNA, backbone not given here)
cleavage by the original Fe^3+ B12 DNAzyme [6]: does not cleave

Fe^3+ B12 Original Substrate (2′OMe) (dCdTdCdTdAdTdTdAmGdGdGdAdGdAdCdTdCdGdCdAdTdGdCdCdGdC)
cleavage by the original Fe^3+ B12 DNAzyme [6]: does not cleave

Fe^3+ B12 Substrate A14G (CTCTATTAGGGAGGCTCGCATGCCGC; listed as DNA, chemistry not fully specified)
activity of mutated substrate strand normalized to original Fe^3+ B12 Substrate [5]: heightened activity

Fe^3+ B12 Substrate C15A (CTCTATTAGGGAGAATCGCATGCCGC; listed as DNA, chemistry not fully specified)
activity of mutated substrate strand normalized to original Fe^3+ B12 Substrate [5]: heightened activity
